Laboratory results taken from the NIST ThermoML archive (doi:10.1016/j.fluid.2015.03.015).

Experiment: refractive index (other wavelength) (dimensionless)
Conditions: 85 kPa, Liquid, Wavelength=632.8 nm, Minimum Deviation

CCCCCCCC[n+]1ccn(C)c1.F[B-](F)(F)F [1-methyl-3-octylimidazolium tetrafluoroborate]
Conditions	refractive index
288.81 K	1.4343
290.85 K	1.4338
292.91 K	1.4332
294.95 K	1.4327
297 K	1.4321
297.74 K	1.4319
299.06 K	1.4316
299.31 K	1.4315
300.78 K	1.4312
301.11 K	1.431
302.3 K	1.4307
303.2 K	1.4304
303.84 K	1.4303
305.32 K	1.4299
306.84 K	1.4295
308.35 K	1.429

CCCCCCCO [heptan-1-ol]
Conditions	refractive index
297.43 K	1.4217
298.87 K	1.4211
300.46 K	1.4205
301.93 K	1.4199
303.44 K	1.4193
305.08 K	1.4187
306.72 K	1.418
308.35 K	1.4174

CCCC(C)O (stereo not given) [pentan-2-ol]
Conditions	refractive index
289.22 K	1.407
292.33 K	1.4058
295.95 K	1.4042
299.54 K	1.4027
302.62 K	1.4013
306.2 K	1.3997
